Reference: ChEMBL document CHEMBL1133011, “DNA binding, solubility, and partitioning characteristics of extended lexitropsins” (J Med Chem, 2000)

Columns and labels:
[1] = Partition coefficient of the compound (logP); conditions: octanol/water
[2] = Distribution coefficient of the compound at pH 7.4 (logD); conditions: octanol/water
[3] = The ionization constant (pKa) for the compound

logP [1] | logD [2] | pKa [3] | Structure (SMILES)
3.89 | -0.32 | 9.5 | CN(C)CCCNC(=O)c1cc(NC(=O)c2cc(NC(=O)c3cc(NC(=O)c4cc(NC(=O)c5cc(NC(=O)CCCN(C)C)cn5C)cn4C)cn3C)cn2C)cn1C
4.68 | 0.47 | 9.5 | CN(C)CCCNC(=O)c1cc(NC(=O)c2cc(NC(=O)c3cc(NC(=O)c4cc(NC(=O)c5cc(NC(=O)c6cc(NC(=O)CCCN(C)C)cn6C)cn5C)cn4C)cn3C)cn2C)cn1C
2.17 | 0.07 | 9.5 | CN(C)CCCNC(=O)c1cc(NC(=O)c2cc(NC(=O)c3cc(NC=O)cn3C)cn2C)cn1C
3.18 | -1.03 | 9.5 | CN(C)CCCNC(=O)c1cc(NC(=O)c2cc(NC(=O)/C=C/C(=O)Nc3cc(C(=O)Nc4cc(C(=O)NCCCN(C)C)n(C)c4)n(C)c3)cn2C)cn1C
1.47 | -2.74 | 9.5 | CN(C)CCCNC(=O)c1cc(NC(=O)c2cc(NC(=O)CNC(=O)c3cccc(C(=O)NCC(=O)Nc4cc(C(=O)Nc5cc(C(=O)NCCCN(C)C)n(C)c5)n(C)c4)c3)cn2C)cn1C
-0.87 | -5.87 | 12.4 | Cn1cc(NC(=O)c2cc(NC(=O)c3cc(NC=O)cn3C)cn2C)cc1C(=O)NCCC(=N)N [STALLIMYCIN]
